Data as given in patent publication US20220081676A1, “MICROFLUIDIC DEVICES FOR TATTOO PIGMENT SAFETY” (priority 2019, published 2022).
Where two headings read alike, the source gives them in different places.

Legend:
Liver-Chip = experiment: Assessment of tattoo pigment toxicity on the Liver-Chip; conditions: 5 microM
Method: Injury to liver function is indicated by […] in albumin Secretion. […] Other functional changes or mechanistic routes may be detectable through additional assays
Pigment with a low concentration of 0.03% of pigment diluent is flowed through the chip (same concentrations both top and bottom channels simultaneously). […] In future applications, we also plan to explore potential toxicity of pigment diluent formulations (without pigments).
Both top and bottom channels were treated
Embodiments of Liver-Chips include: Co-culture (Hepatocytes+LSECs); Tri-culture (Hepatocytes+LSECs+Kupffer cells); Quad-culture (Hepatocytes+LSECs+Kupffer cells+Stellate cells); Human Liver-Chip; Rat Liver-Chip; Dog Liver-Chip; etc.

[1] = system: Skin-Chip (microfluidic OT-chip); conditions: human
Text: Readouts include but are not limited to Invitrogen PrestoBlue™. Invitrogen PrestoBlue™ Cell Viability Reagent, e.g. Fisher Scientific, Catalog number: A1326, is an exemplary metabolic Assay Reagent. When added to cells, the PrestoBlue® reagent is modified by the reducing environment of a viable cell and turns red in color, becoming highly fluorescent. This color change can be detected using fluorescence or absorbance measurements.

Dog Liver-Chip = experiment: Effect of Bosentan on albumin secretion, Dog Liver-Chip; assay type: cell-based; conditions: in vivo relevant doses
Text: (§1) Readouts include but are not limited to: albumin secretion, Effect of Bosentan on Albumin Secretion; Inhibition of BSEP Transporter; Bile acid accumulation Cholyl-lysyl-fluorescein (CLF); BSEP substrate etc.

Human Liver-Chip = experiment: Effect of Bosentan on albumin secretion, Human Liver-Chip; assay type: cell-based; conditions: in vivo relevant doses
Text: as §1

EpiDerm200 from MatTek [2] = experiment: ET50 following topical exposure to Triton X-100, EpiDerm200 from MatTek; assay type: cell-based; conditions: skin equivalent model on the market
Method: (§2) In one embodiment, tissue robustness was evelauated determining the ET50 value following topical exposure to a test irritant, 1% TritonX-100. Irritation potential is calculated in terms of the “ET50” value: the time taken, in minutes, for a test compound to reduce the viability of the skin model to 50% compared with negative controls. […] Thus, at least one commercially obtained and tested skin equivalent model became permeable faster than one embodiment of a static skin model described herein.
(§3) Immunostaining (IF):Biomarkers characteristic of the stratified epidermal layers should include: • Basement membrane markers: collagen IV, Laminin 5 • Stratum basal: Keratin 14 • Stratum spinosum: Keratin 10 • Stratum granulosum: Filaggrin • Stratum corneum: Involucrin, Loricrin Quality control of tissue reproducibility from sample to sample and lot to lot can also be established by comparison of ET50 values to a baseline value. Example provided from MatTek for their baseline ET50 value on EpiDerm200—average 6.82 h. Exposure to 1.0% Triton X-100 topically over 12 h.

EpiDerm200 from MatTek [3] = conditions: cited from earlier work
Static Skin model = assay type: cell-based, human
Method: Tissue robustness evaluated by determining the ET50 value following topical exposure to 1% TritonX-100.
as §2, §3

[4] = system: Static Skin model (Hybrid Transwells); experiment: Skin irritation: release of associated cytokines after topical Triton X-100, Hybrid Transwells; assay type: cell-based, human; conditions: topical exposure
Method: D11 ALI. N=3 per condition Hybrid Transwells.
Method 1: ET50 values determined by MTT or Presto Blue assay will define the class of irritancy based on in vivo classification (see table below). Topical exposures will include 3 exposure times of 2 h, 5 h and 18 h to 100 ul or 100 mg of a test material. Positive control include 5% SDS and 1% Triton X-100. Method 2: a material is considered an irritant is viability is <50% after 1 h topical exposure to 30 ul or 25 mg/of test material (OECD TG 439) Method 3: a material is considered an irritant if there is an increase in the following cytokines compared to control by ELISA is indicative of skin irritant—IL-1alpha, IL-8, prostaglandin PGE2. MatTek Irritancy protocol

[5] = system: Kidney Proximal Tubule-Chip; experiment: Assessment of tattoo pigment toxicity on the Kidney Proximal Tubule-Chip; assay type: cell-based, human
Method: Channel: Renal Proximal Tubule Epithelial Cells
Bottom Channel: Renal Microvascular Endothelial Cells
Morphology: BF Imaging From Effluent: LDH, ROS
Terminal Endpoints From Lysates: Caspase, ALP
ECM-coating. Sulfo-sanpah (Covachem, #13414), ER1 (0.5 mg/ml) in ER2 50 mM HEPES buffer; Collagen IV (BD Corning, 50 μg/mL in Dulbecco's phosphate-buffered saline (DPBS); and Matrigel (BD Corning, reduced growth factor, 100 ug/ml DPBS). Cells. Top channel. Human Proximal Tubular Epithelial Cells (Lonza, RPTEC #CC-2553); and Bottom channel. Primary Human Glomerular microvascular Endothelial cells (Cell Systems. ACBRI 128), expand to P7 (e.g. passage 7). Media. Renal Epithelial Growth Medium (REGM™ Lonza, CC-3190) for Proximal tubule cells or REGM2 (from PromoCell, Cat #C-26130); and Kidney endothelial cell medium (Cell Systems, 4ZO-500). Chip. High shear chip; under flow shear; and Tall channel closed top-chip. Experimental reagents. Collagen IV coated 6 well plate; and Corning BioCoat Collagen IV multiwall plates, Corning #354428.
One brief exemplary timeline is described as: Day −2: Chip coating; Day −1: Seeding endothelial cells; Day 0: Seeding proximal tubule epithelial cells; Day 0-7: Maintain chips; Day 7: Start Experiment (Study), e.g. 72 hours; and Day 10: End 72 hour Experiment (Study). Exemplary readouts include but are not limited to: Phase contrast microscopic images; immunofluorescent images; barrier function (in particular for kidney-chips, etc.); and Troponin I release (in particular for heart-chips, i.e. cardiac-chips).
Outflow from chips, (e.g. S1—closed top chip; and high shear (HS) chip) was collected for certain readouts. For reference, kidney endothelial media contains 5% FBS while the kidney epithelial media contains 0.5% FBS.

Static Skin models = assay type: cell-based, human
Text: Red tattoo pigments known to cause some level of toxicity following sun exposure.
D12 ALI (D8 post-tattoo) N=4 per condition. Hybrid Transwells.
Red tattoo pigments known to cause some level of toxicity following sun exposure. […] D12 ALI (D8 post-tattoo) N=4 per condition. Hybrid Transwells.
Safety Assessment of Red122 Pigment—Phototoxicity Assay (Viability) Red tattoo pigments known to cause some level of toxicity following sun exposure. […] Chlorpromazine (CPZ), known to be induce phototoxicity and photosensitization, was used as a positive control.
Barrier Function: Permeability of Cascade Blue (3000 MW); Quantification of skin permeability to Cascade Blue by topical deposition of 50 μl of 10 μM Cascade Blue, followed by 1 hour static incubation. Bottom channel medium collected and Papp determined by quantification of Cascade Blue present in the sampled medium using a plate-reader. […] Permeability of Testosterone and Caffeine; Requires mass spectrometer for detection. These values can be correlated to in vivo skin. Topical Compound Test for Toxicity, Corrosivity, Irritancy, Phototoxicity viability assays performed are MTT or Presto Blue. Corrosivity: a material is considered corrosive if cell viability is <50% after 3 min exposure or <15% after 60 min exposure. […]

[6] = system: Static Skin models (Hybrid Transwells); experiment: Phototoxicity and photosensitization to Red122: cytokines release; assay type: cell-based, human; conditions: tattooed with 35% w/v; for inflammatory and sensitization cytokines (IL-1Beta and IL-18) following UVA exposure: UVA on D11 ALI (D7 post-tattoo)
Static Skin-Chip Model = experiment: Toxicity of pigments tattooed on Static Skin-Chip Model, metabolic activity (Presto Blue); assay type: cell-based, human
Text: Tattooed on D4 at ALI, N=4 per condition Hybrid Transwells.
Metabolic Activity (Presto Blue) of Blue15 Pigment. Tattooed on D4 at ALI. N=4 per condition Hybrid Transwells.
Thus, readouts include assessing recovery after damage. Readouts include but are not limited to Invitrogen PrestoBlue™.

[7] = system: proximal tubular epithelium; experiment: Gentamicin-induced toxicity on Renal-Kidney Proximal Tubule-Chip; assay type: cell-based, human; conditions: 10 mM for 48 hours
Method: Gentamicin treatment is used for inducing damage as a positive control compared to controls without Gentamicin.
Readouts include but are not limited to: Gentamicin-induced toxicity after exposure to 10 mM of gentamicin for 48 hours.

[8] = system: epidermal cells in a Skin-Chip (microfluidic OT-chip)
Text: In some embodiments, a live-dead staining is used for determining cell viability.

Molecule: CN[C@@H]1C[C@H]2O[C@@](C)([C@@H]1OC)n1c3ccccc3c3c4c(c5c6ccccc6n2c5c31)C(=O)NC4 [staurosporine]
- ATP synthesis, effluent from the bottom channels (Liver-Chip): loss of ATP synthesis
- albumin secreted over time, effluent from the top channel (Liver-Chip): loss of secreted albumin
- hepatocyte cell morphology (Liver-Chip; after 4 days of treatment): hepatocyte damage

Molecule: O=C(O)CO [glycolic acid]
- metabolic activity (PrestoBlue) as percentage of untreated control [1]: statistically significant reduction in activity compared to the activity of citric acid (0.6M) and lactic acid

Molecule: COc1ccccc1Oc1c(NS(=O)(=O)c2ccc(C(C)(C)C)cc2)nc(-c2ncccn2)nc1OCCO [Bosentan]
- albumin secretion, dose response (Dog Liver-Chip): dose response effects
- albumin secretion, dose response (Human Liver-Chip): dose response effects

Molecule: Triton X-100
- ET50 (EpiDerm200 from MatTek [2]): 7 h
- baseline ET50 value, average (EpiDerm200 from MatTek [3]; EpiDerm200, 1.0% Triton X-100 topically, provided from MatTek): 6.82 h
- EPI-200 Triton ET-50 (EpiDerm200 from MatTek [3]; Year 1995): 6.65 h
- EPI-200 Triton ET-50 (EpiDerm200 from MatTek [3]; Year 1996): 6.74 h
- EPI-200 Triton ET-50 (EpiDerm200 from MatTek [3]; Year 1997): 6.78 h
- EPI-200 Triton ET-50 (EpiDerm200 from MatTek [3]; Year 1998): 7.24 h
- EPI-200 Triton ET-50 (EpiDerm200 from MatTek [3]; Year 1999): 6.75 h
- EPI-200 Triton ET-50 (EpiDerm200 from MatTek [3]; Year 2000 (through September 2000)): 6.76 h
- ET50 (Static Skin model): 11 h
- expression of inflammatory cytokine IL-1B [4]: increase in expression
- IL-18 (expressed following skin sensitization) ([4]; D11 ALI): no significant increase
- expression of inflammatory cytokine IL-1alpha ([4]; D11 ALI): increase in expression

Molecule: Cc1ccc2[nH]c3cc4c(=O)c5cc(C)ccc5[nH]c4cc3c(=O)c2c1 [Red122]
- caspase activity ([5]; between the different doses): No significant differences were noted in caspase activity
- kidney toxicity via LDH release ([5]; between the different doses): No significant changes in LDH
- ROS activity ([5]; between the different groups): No significant differences were observed in the ROS activity
- ALP activity (kidney function) ([5]; different doses): No significant differences were observed in the ALP activity
- viability from healthy after UVA (phototoxicity) (Static Skin models): 85%
- inflammatory and sensitization cytokines (IL-1Beta and IL-18) following UVA exposure [6]: both cytotoxicity and sensitization following UVA exposure
- inflammatory and sensitization cytokines (IL-1Beta and IL-18) following UVA exposure ([6]; listed as Red): increase in both cytokines
- effect as a skin sensitizer (cytokine release) ([6]; no UVA): no effect as a skin sensitizer
- secretion of inflammatory cytokine ([6]; no UVA): increased secretion of inflammatory cytokine
- viability (metabolic activity, Presto Blue) (Static Skin-Chip Model; 24 h post-tattoo, tattooed on D4 at ALI, Hybrid Transwells): decrease in viability with increasing Red122 concentration
- skin recovery (viability) (Static Skin-Chip Model; over 8 days post-tattoo): Skin recovery observed

Molecule: gentamicin
- LDH in medium effluent [7]: significant increase
- NAG in medium effluent [7]: significant increase
- ROS in medium effluent [7]: significant increase
- active caspase-3 in cells lysates [7]: increase
- microscopic analysis of the proximal tubular epithelium [7]: structural damage

Molecule: CC(O)C(=O)O (centres unmarked) [lactic acid]
- cell death by DRAQ7 staining, dead cells/mm^2 [8]: statistically significant death of skin cells
